From patent publication US20100292200A1, “Methods for Modulating Apoptosis in Platelets” (The Walter and Eliza Hall Institute of Medical Research, priority 2006, published 2010)
“Also recorded” adds a separate entry of the source.

How the values were obtained:
[1] = tested on: Bcl-2, Bcl-xL, Bcl-w, Mcl-1, A1; details: Oltersdorf et al., 2005; van Delft et al., 2006; cited from earlier work
mouse platelets = test: Ex vivo platelet assays, mouse platelets in culture (platelet counts, caspase immunoblotting); format: cell-based; details: ABT-737 1 μM
Method: (A) Expression of Bcl-2 family proteins in platelets. […] (C) ABT-737 triggers caspase activation in platelets. […] (F) Absence of Bak protects platelets against ABT-737.
Cell death was induced with ABT-737 (up to 5 μM, Abbott Laboratories (Oltersdorf et al., 2005 (supra)), etoposide (up to 100 μM, Pharmacia) or staurosporine (10 μM, Sigma); 50 μM qVD.OPh (Enzyme Systems) was also added in some experiments. Cell viability was determined by flow cytometry for cells that exclude propidium iodide or manual counting using a hemacytometer.
Other antibodies for immunoblotting were mouse monoclonal anti-Bcl-xL (2H12; BD), anti-Bcl-2 (clone 7; BD), anti-human Bcl-2 (Bcl-2-100), anti-actin (AC40; Sigma), anti-Bax (2D2 and 5B7; Sigma), anti-Mcl-1 (clone 22: BD); rat monoclonal anti-Mcl-1 (14C11; D Huang, unpublished), rabbit polyclonal anti-Bak (B5897: Sigma), anti-Mcl-1 (Rockland), anti-caspase-3 (585; gift of Y. Lazebnik), anti-cleaved p17 fragment of caspase-3 (AB3623; Chemicon), anti-gelsolin (gift of D Kwiatkowski) (Kothakota et al., Science, 278:294-298, 1997); hamster monoclonal anti-mouse Bcl-2 (3F11; BD). Secondary antibodies included HRP-conjugated anti-rat or anti-hamster IgG (SouthernBiotech), anti-mouse or anti-rabbit IgG (Chemicon), and anti-mouse IgG Fcγ chain specific antibody (Jackson ImmunoResearch). The proteins were detected using Enhanced ChemiLuminescence (ECL; GE Healthcare).
Platelets were counted manually in triplicate using a hemacytometer.

serum TPO levels = test: Thrombopoietin analysis (serum TPO ELISA) in ABT-737 treated mice; format: in vivo, mouse; details: after ABT-737
Method: Animals were bled 2-24 h afterwards and platelet counts determined. […] (B) Platelet recovery after a single dose of ABT-737. Platelet counts (blue symbols; left axis) were determined 2-96 h after a single dose of ABT-737 (red arrow). […] Orange symbols represent serum TPO levels (right axis). (C) Cyclical acute thrombocytopaenia triggered by ABT-737. Platelet counts were determined before and 8 h after a single dose of ABT-737 (red arrows) given at weekly intervals. […] During recovery, baseline counts drifted upwards. (D) ABT-737 acts selectively on aged platelets. […] (E) Synchronizing platelets. […] During recovery, the newly synthesized younger platelets are larger as indicated by the increased mean platelet volume (blue symbols; right axis). (F) Young platelets are resistant to ABT-737. Wild type C57BL/6 mice were treated with APS, and then injected with ABT-737 (red arrows) either 2 or 7 days afterwards. Absolute platelet counts and the % of reticulated platelets were measured. […]
Blood was collected from the retroorbital sinus using a non-heparinized capillary tube into an eppendorf tube and incubated at room temperature for 2 h. […] Thrombopoietin levels were measured by enzyme-linked immunosorbent assay (ELISA) using the Quantikine Mouse TPO Immunoassay kit (R&D Systems) according to the manufacturer's instructions.

Mcl-1 null MEF cells = test: Assay of Mcl-1 null MEF cells (rescue from ABT-737-induced killing, CellTitre-Blue viability); format: cell-based, mouse; details: Mcl-1^(-/-) MEFs
Method: In summary, cells are split on day one in order to have them at a confluency of 60-80% on day two. On day two, the cells are seeded out into assay plates at a density that will ensure they are not confluent by day four of the assay. The assay plates are incubated at room temperature for 20-60 minutes before being transferred to 37° C. so that edge effects are minimized. For the same reason, assay plates are never stacked on top of each other in the incubator. On day three the cells are treated first with either Q-VD or with WEHI library compound. The cells are incubated for a 2 hour period in the presence of the library compounds and are then treated with ABT-737. […] After four hours the level of resorufin is measured.
The protocol for day one was repeated up to the point where the cells were pelleted and the supernatant aspirated off. […] The cells were vortexed and then counted using a haemocytometer. The dilution necessary to achieve a density of 2×10^4 cells ml^−1 (1000 cells per well per 50 μl media) in the required volume was calculated and the dilution performed in 1% FCS FMA. […]
CellTitre-Blue™ was warmed to 37° C. and 10 μl was then added to each well of the assay plates using the Multidrop. The plates were returned to 37° C. for 4 hours before being loaded into the EnVision plate reader. […]

In the case of `CN(C)CC[C@H](CSc1ccccc1)Nc1ccc(S(=O)(=O)NC(=O)c2ccc(N3CCN(Cc4ccccc4-c4ccc(Cl)cc4)CC3)cc2)cc1[N+](=O)[O-]` [ABT-737], the “selectivity among pro-survival Bcl-2 family proteins” value [1] is given as “selectively targets Bcl-2, Bcl-xL and Bcl-w but not the other pro-survival proteins Mcl-1 or A1”, the “loss of wild type platelets in culture” value (mouse platelets; counted after 1 h) is given as “Bak-mediated caspase-dependent loss of platelets” and the “caspase-3 activation and gelsolin cleavage in cultured platelets” value (mouse platelets; immunoblotting) is given as “triggered cleavage and full activation of caspase-3 as well as cleavage of gelsolin; also recorded: induced complete caspase-3 activation and gelsolin cleavage”. For the same compound, the “action of ABT-737 on viability of Bak^-/- platelets in culture” value (mouse platelets; Bak^-/- vs wild type platelets, 1 h) was “markedly blunted”, the “TPO levels in ABT-737 treated mice” value (serum TPO levels) was “sustained production; also recorded: normal, or probably even elevated” and the “induction of apoptosis in Mcl-1^(-/-) cells” value (Mcl-1 null MEF cells) was “Apoptosis is induced”.
